Laboratory results reported in ChEMBL document CHEMBL1201862, “PubChem BioAssay data set” (2004).
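Protocol summary: plate cells (96-well), add compound at 5 concentrations, incubate 48 h, interpolate endpoints linearly. At the GI50, growth is halved.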 The source made the active and inactive calls. Rule as the data show it: active = GI50 up to about 1.1 µM and inactive = higher.

Columns and labels:
Test in all cases: DTP human tumour cell line panel, 48 h
CAKI-1 = system: CAKI-1
SW-620 = system: SW-620
A549 = system: A549
SNB-75 = system: SNB-75
NCI-H23 = system: NCI-H23
HL-60 = system: HL-60
U-251 = system: U-251
SF-268 = system: SF-268
RXF 393 = system: RXF 393
OVCAR-8 = system: OVCAR-8
SF-539 = system: SF-539
SNB-19 = system: SNB-19
K562 = system: K562
NCI-H226 = system: NCI-H226
HOP-92 = system: HOP-92

SMILES | GI50 (CAKI-1) | GI50 (SW-620) | GI50 (A549) | GI50 (SNB-75) | GI50 (NCI-H23) | GI50 (HL-60) | GI50 (U-251) | GI50 (SF-268) | GI50 (RXF 393) | GI50 (OVCAR-8) | GI50 (SF-539) | GI50 (SNB-19) | GI50 (K562) | GI50 (NCI-H226) | GI50 (HOP-92)
CC1CCP(=O)(c2ccccc2)CC1 (centres undefined) | > 100 µM (inactive) | > 100 µM (inactive) | > 100 µM (inactive) | > 100 µM (inactive) | > 100 µM (inactive) | > 100 µM (inactive) | > 100 µM (inactive) | > 100 µM (inactive) | > 100 µM (inactive) | > 100 µM (inactive) | > 100 µM (inactive) | > 100 µM (inactive) | > 100 µM (inactive) | – | –
CN(C(=O)C12C3C4C1C1C2C3C41C(O)C(C)(C)C)C(C)(C)C (centres undefined) | > 100 µM (inactive) | > 100 µM (inactive) | > 100 µM (inactive) | > 100 µM (inactive) | > 100 µM (inactive) | > 100 µM (inactive) | > 100 µM (inactive) | > 100 µM (inactive) | – | > 100 µM (inactive) | > 100 µM (inactive) | > 100 µM (inactive) | > 100 µM (inactive) | > 100 µM (inactive) | –
CN(C)CC1CCCC(CN(C)C)C1=NOC(=O)c1ccccc1 (centres undefined) | – | > 100 µM (inactive) | > 100 µM (inactive) | > 56.5 µM (inactive) | > 100 µM (inactive) | > 100 µM (inactive) | > 100 µM (inactive) | > 100 µM (inactive) | – | > 100 µM (inactive) | > 100 µM (inactive) | > 100 µM (inactive) | > 100 µM (inactive) | > 100 µM (inactive) | > 100 µM (inactive)
O=C1C=CC=CC2CC=C[C@@H](O)C12 (some centres undefined) | 65.6 µM (inactive) | 10.5 µM (inactive) | 26.2 µM (inactive) | – | > 10 µM (inactive) | 15.5 µM (inactive) | > 10 µM (inactive) | 21.3 µM (inactive) | – | 29.6 µM (inactive) | 24.5 µM (inactive) | 22.9 µM (inactive) | 26.5 µM (inactive) | – | –
O=C(O)c1ccccc1NS(=O)(=O)c1ccc([N+](=O)[O-])cc1 | > 100 µM (inactive) | > 100 µM (inactive) | > 100 µM (inactive) | > 100 µM (inactive) | > 100 µM (inactive) | – | > 100 µM (inactive) | > 100 µM (inactive) | > 100 µM (inactive) | > 100 µM (inactive) | > 100 µM (inactive) | > 100 µM (inactive) | > 100 µM (inactive) | > 100 µM (inactive) | –
COc1cccc2c1[C@H]1OC(=O)NC1CCCCC2 (some centres undefined) | > 100 µM (inactive) | > 100 µM (inactive) | > 100 µM (inactive) | > 100 µM (inactive) | > 100 µM (inactive) | > 100 µM (inactive) | > 100 µM (inactive) | > 100 µM (inactive) | > 100 µM (inactive) | > 100 µM (inactive) | > 100 µM (inactive) | > 100 µM (inactive) | > 100 µM (inactive) | > 100 µM (inactive) | –
CC(=O)NNc1nc(C)c(C(=O)/C=C/c2ccc(Cl)cc2)s1 | > 100 µM (inactive) | > 100 µM (inactive) | > 100 µM (inactive) | > 100 µM (inactive) | > 100 µM (inactive) | > 100 µM (inactive) | > 100 µM (inactive) | > 100 µM (inactive) | > 100 µM (inactive) | > 100 µM (inactive) | > 100 µM (inactive) | > 100 µM (inactive) | > 100 µM (inactive) | – | > 100 µM (inactive)
COc1ccc2c(CCNC(C)=O)c(C(C)=O)[nH]c2c1 | 70.5 µM (inactive) | > 100 µM (inactive) | > 100 µM (inactive) | > 100 µM (inactive) | > 10 µM (inactive) | > 100 µM (inactive) | > 100 µM (inactive) | 48.4 µM (inactive) | > 100 µM (inactive) | > 100 µM (inactive) | > 100 µM (inactive) | > 100 µM (inactive) | > 100 µM (inactive) | 71.4 µM (inactive) | –
CC(C(=O)c1ccccc1)C1(O)C(=O)Nc2ccc(Cl)cc21 (centres undefined) | > 100 µM (inactive) | 49.1 µM (inactive) | > 100 µM (inactive) | > 100 µM (inactive) | > 100 µM (inactive) | – | 53.8 µM (inactive) | > 100 µM (inactive) | > 100 µM (inactive) | > 100 µM (inactive) | > 100 µM (inactive) | > 100 µM (inactive) | – | > 100 µM (inactive) | > 100 µM (inactive)
CSc1nc(NC2OCC(OC(C)=O)C(OC(C)=O)C2OC(C)=O)c2c(OC(C)=O)c(C)c(=O)oc2n1 (centres undefined) | > 100 µM (inactive) | > 100 µM (inactive) | > 100 µM (inactive) | > 100 µM (inactive) | > 100 µM (inactive) | > 100 µM (inactive) | > 100 µM (inactive) | – | > 100 µM (inactive) | > 100 µM (inactive) | > 100 µM (inactive) | > 100 µM (inactive) | > 100 µM (inactive) | > 100 µM (inactive) | 71.6 µM (inactive)
CCc1cc2c(c3[nH]ccc13)[C@@H](C)C[C@H]2C | 15.8 µM (inactive) | 19.8 µM (inactive) | 19.6 µM (inactive) | 17.5 µM (inactive) | 17.8 µM (inactive) | 21.8 µM (inactive) | 16.4 µM (inactive) | – | 13.8 µM (inactive) | 19.7 µM (inactive) | > 10 µM (inactive) | – | 21.6 µM (inactive) | 16.4 µM (inactive) | 16.2 µM (inactive)
CCOC(=O)NC(=O)c1cn(CCCO)c(=O)[nH]c1=O | > 100 µM (inactive) | > 100 µM (inactive) | > 100 µM (inactive) | 45.6 µM (inactive) | > 100 µM (inactive) | – | > 100 µM (inactive) | > 100 µM (inactive) | – | > 100 µM (inactive) | > 100 µM (inactive) | > 100 µM (inactive) | > 100 µM (inactive) | > 100 µM (inactive) | > 100 µM (inactive)
O=C1Nc2ccccc2/C1=N/NC(=O)c1ccccc1O | – | 46.8 µM (inactive) | 55.3 µM (inactive) | 19.8 µM (inactive) | 24.5 µM (inactive) | 27.7 µM (inactive) | 23.2 µM (inactive) | 44.4 µM (inactive) | 16.6 µM (inactive) | 44.5 µM (inactive) | 41.4 µM (inactive) | 62.2 µM (inactive) | 40.9 µM (inactive) | 33.2 µM (inactive) | –
[O-][n+]1c2cc(CN3CCOCC3)c(CN3CCOCC3)cc2[n+]([O-])c2c(O)cccc21 | – | 2.94 µM (inactive) | – | 3.46 µM (inactive) | 2.37 µM (inactive) | 0.807 µM (active) | 3.25 µM (inactive) | 1.05 µM (active) | 0.968 µM (active) | 2.48 µM (inactive) | 1.08 µM (active) | 9.44 µM (inactive) | 2.61 µM (inactive) | 8.65 µM (inactive) | 2 µM (inactive)
CC1=C(C)C(=O)c2c(cc3ccc4ccccc4n23)C1=O | – | > 100 µM (inactive) | > 100 µM (inactive) | > 100 µM (inactive) | > 100 µM (inactive) | > 100 µM (inactive) | > 100 µM (inactive) | > 100 µM (inactive) | > 100 µM (inactive) | > 100 µM (inactive) | > 100 µM (inactive) | > 100 µM (inactive) | > 100 µM (inactive) | > 100 µM (inactive) | –
O=C1CCN2C(=O)CCN12 | > 100 µM (inactive) | > 100 µM (inactive) | > 100 µM (inactive) | – | > 100 µM (inactive) | > 100 µM (inactive) | > 100 µM (inactive) | > 100 µM (inactive) | – | > 100 µM (inactive) | – | > 100 µM (inactive) | > 100 µM (inactive) | > 100 µM (inactive) | > 100 µM (inactive)
COC(=O)C1C(=O)O[C@@H](c2ccc(OC)cc2)C1C(=O)OC (some centres undefined) | > 100 µM (inactive) | > 100 µM (inactive) | > 100 µM (inactive) | > 100 µM (inactive) | > 100 µM (inactive) | – | > 100 µM (inactive) | > 100 µM (inactive) | > 100 µM (inactive) | > 100 µM (inactive) | > 100 µM (inactive) | > 100 µM (inactive) | > 100 µM (inactive) | > 100 µM (inactive) | > 100 µM (inactive)
CN(CCN(C)C(=O)CCOS(C)(=O)=O)C(=O)CCOS(C)(=O)=O | > 100 µM (inactive) | > 100 µM (inactive) | > 100 µM (inactive) | > 100 µM (inactive) | > 100 µM (inactive) | 30.9 µM (inactive) | > 100 µM (inactive) | 77.8 µM (inactive) | – | > 100 µM (inactive) | 44.1 µM (inactive) | > 100 µM (inactive) | > 100 µM (inactive) | > 100 µM (inactive) | > 100 µM (inactive)
O=C(Nc1c(O)[nH]c(=S)[nH]c1=O)c1ccccc1 | > 100 µM (inactive) | > 100 µM (inactive) | > 100 µM (inactive) | > 100 µM (inactive) | > 100 µM (inactive) | > 100 µM (inactive) | > 100 µM (inactive) | > 100 µM (inactive) | – | > 100 µM (inactive) | > 100 µM (inactive) | > 100 µM (inactive) | > 100 µM (inactive) | > 100 µM (inactive) | > 100 µM (inactive)
CSc1nc2[nH]c(=O)c(C)nc2c(=O)[nH]1 | > 100 µM (inactive) | > 100 µM (inactive) | > 100 µM (inactive) | > 100 µM (inactive) | > 100 µM (inactive) | > 100 µM (inactive) | > 100 µM (inactive) | > 100 µM (inactive) | > 100 µM (inactive) | > 100 µM (inactive) | – | > 100 µM (inactive) | > 100 µM (inactive) | – | > 100 µM (inactive)
